From patent US20090252673A1, “Methods of Making and Using Rubidium-81-Containing Compositions” (priority 2006, published 2009)

System: occlusion/reperfusion rat heart model
Test: Ex vivo dual tracer autoradiography, Tl-201 and Rb-81 redistribution kinetics
Assay type: in vivo, rats
Conditions: 20 μm heart slices, phosphor-imager ROIs
Description: Three additional rats were simultaneously injected with 20 MBq Rb-81 and 2.7 MBq Tl-201. After the occlusion/injection/reperfusion procedure was completed (see FIG. 8), the animals were sacrificed at 0, 15 and 45 min after initiating the reperfusion.
After the hearts of the animals were removed and freshly frozen in liquid nitrogen, they were sliced into short axis 20 μm slices. Radioactivity in the tissues sections was determined by using a phosphor-imager. Rb-81 was measured over a period of 3 h directly after preparation of the slices, whereas the Tl-201 activity was determined after the Rb-81 activity was almost completed (Rb-81: t1/2=4.58 h versus a 4 day decay period).
Quantitative evaluations were carried out by comparison of the detected counts within regions-of-interest in both, normal tissue areas and occluded tissues areas. Comparisons are given in percent of normal heart tissue.

With `[201Tl]` [Tl-201, reference compound] the “activity in occluded areas, percent of the uptake in normal tissues” value (“activity in occluded areas, percent” for short) (0 min p.i.) was 5%, the “activity in occluded areas, percent” value (15 min p.i.) was 28% and the “activity in occluded areas, percent” value (45 min p.i.) was 58%.
